Measurements as given in PubChem BioAssay AID1259407 (Chemical Carcinogenesis Research Information System (CCRIS), 2018).
Active and inactive are the calls of the source. No rule for the calls is given here.

System: CCRIS mutagenicity, Ames/micronucleus/aberration tests
Experiment: CCRIS mutagenicity studies
[1] = Test System: AMES SALMONELLA TYPHIMURIUM, Strain/Indicator: TA98, Metabolic Activation: NONE, Method: STANDARD PLATE

SMILES: O=[N+]([O-])c1ccc2c(c1)-c1nc3ccccc3c3c1c-2nc1ccccc13
- mutagenic call [1]: active; positive
- mutagenic call (Test System: AMES SALMONELLA TYPHIMURIUM, Strain/Indicator: TA98, Metabolic Activation: RAT LIVER S-9, AROCLOR 1254, Method: STANDARD PLATE): active; positive
- mutagenic call (Test System: ESCHERICHIA COLI, Strain/Indicator: WP2 UVR A, Metabolic Activation: NONE, Method: STANDARD PLATE): inactive; negative
- mutagenic call (Test System: ESCHERICHIA COLI, Strain/Indicator: WP2 UVR A, Metabolic Activation: RAT LIVER S-9, AROCLOR 1254, Method: STANDARD PLATE): inactive; negative

SMILES: Cc1ccc(C(=O)c2cc(O)c(O)c([N+](=O)[O-])c2)cc1
- mutagenic call (Test System: AMES SALMONELLA TYPHIMURIUM, Strain/Indicator: TA97, Metabolic Activation: NONE, Method: PREINCUBATION): inactive; negative
- mutagenic call (Test System: AMES SALMONELLA TYPHIMURIUM, Strain/Indicator: TA97, Metabolic Activation: NONE, Method: STANDARD PLATE): inactive; negative
- mutagenic call (Test System: AMES SALMONELLA TYPHIMURIUM, Strain/Indicator: TA97, Metabolic Activation: RAT, LIVER, S-9, PHENOBARBITAL AND BETA-NAPHTHOFLAVONE, Method: PREINCUBATION): inactive; negative
- mutagenic call (Test System: AMES SALMONELLA TYPHIMURIUM, Strain/Indicator: TA97, Metabolic Activation: RAT, LIVER, S-9, PHENOBARBITAL AND BETA-NAPHTHOFLAVONE, Method: STANDARD PLATE): inactive; negative
- mutagenic call (Test System: AMES SALMONELLA TYPHIMURIUM, Strain/Indicator: TA98, Metabolic Activation: NONE, Method: PREINCUBATION): inactive; negative
- mutagenic call [1]: inactive; negative
- mutagenic call (Test System: AMES SALMONELLA TYPHIMURIUM, Strain/Indicator: TA98, Metabolic Activation: RAT, LIVER, S-9, PHENOBARBITAL AND BETA-NAPHTHOFLAVONE, Method: PREINCUBATION): inactive; negative
- mutagenic call (Test System: AMES SALMONELLA TYPHIMURIUM, Strain/Indicator: TA98, Metabolic Activation: RAT, LIVER, S-9, PHENOBARBITAL AND BETA-NAPHTHOFLAVONE, Method: STANDARD PLATE): inactive; negative
- mutagenic call (Test System: AMES SALMONELLA TYPHIMURIUM, Strain/Indicator: TA100, Metabolic Activation: NONE, Method: PREINCUBATION): inactive; negative
- mutagenic call (Test System: AMES SALMONELLA TYPHIMURIUM, Strain/Indicator: TA100, Metabolic Activation: NONE, Method: STANDARD PLATE): inactive; negative
- mutagenic call (Test System: AMES SALMONELLA TYPHIMURIUM, Strain/Indicator: TA100, Metabolic Activation: RAT, LIVER, S-9, PHENOBARBITAL AND BETA-NAPHTHOFLAVONE, Method: PREINCUBATION): inactive; negative
- mutagenic call (Test System: AMES SALMONELLA TYPHIMURIUM, Strain/Indicator: TA100, Metabolic Activation: RAT, LIVER, S-9, PHENOBARBITAL AND BETA-NAPHTHOFLAVONE, Method: STANDARD PLATE): inactive; negative
- mutagenic call (Test System: AMES SALMONELLA TYPHIMURIUM, Strain/Indicator: TA102, Metabolic Activation: NONE, Method: PREINCUBATION): inactive; negative
- mutagenic call (Test System: AMES SALMONELLA TYPHIMURIUM, Strain/Indicator: TA102, Metabolic Activation: NONE, Method: STANDARD PLATE): inactive; negative
- mutagenic call (Test System: AMES SALMONELLA TYPHIMURIUM, Strain/Indicator: TA102, Metabolic Activation: RAT, LIVER, S-9, PHENOBARBITAL AND BETA-NAPHTHOFLAVONE, Method: PREINCUBATION): inactive; negative
- mutagenic call (Test System: AMES SALMONELLA TYPHIMURIUM, Strain/Indicator: TA102, Metabolic Activation: RAT, LIVER, S-9, PHENOBARBITAL AND BETA-NAPHTHOFLAVONE, Method: STANDARD PLATE): inactive; negative
- mutagenic call (Test System: AMES SALMONELLA TYPHIMURIUM, Strain/Indicator: TA1535, Metabolic Activation: NONE, Method: PREINCUBATION): inactive; negative
- mutagenic call (Test System: AMES SALMONELLA TYPHIMURIUM, Strain/Indicator: TA1535, Metabolic Activation: NONE, Method: STANDARD PLATE): inactive; negative
- mutagenic call (Test System: AMES SALMONELLA TYPHIMURIUM, Strain/Indicator: TA1535, Metabolic Activation: RAT, LIVER, S-9, PHENOBARBITAL AND BETA-NAPHTHOFLAVONE, Method: PREINCUBATION): inactive; negative
- mutagenic call (Test System: AMES SALMONELLA TYPHIMURIUM, Strain/Indicator: TA1535, Metabolic Activation: RAT, LIVER, S-9, PHENOBARBITAL AND BETA-NAPHTHOFLAVONE, Method: STANDARD PLATE): inactive; negative
- mutagenic call (Test System: AMES SALMONELLA TYPHIMURIUM, Strain/Indicator: TA1537, Metabolic Activation: NONE, Method: PREINCUBATION): inactive; negative
- mutagenic call (Test System: AMES SALMONELLA TYPHIMURIUM, Strain/Indicator: TA1537, Metabolic Activation: NONE, Method: STANDARD PLATE): inactive; negative
- mutagenic call (Test System: AMES SALMONELLA TYPHIMURIUM, Strain/Indicator: TA1537, Metabolic Activation: RAT, LIVER, S-9, PHENOBARBITAL AND BETA-NAPHTHOFLAVONE, Method: PREINCUBATION): inactive; negative
- mutagenic call (Test System: AMES SALMONELLA TYPHIMURIUM, Strain/Indicator: TA1537, Metabolic Activation: RAT, LIVER, S-9, PHENOBARBITAL AND BETA-NAPHTHOFLAVONE, Method: STANDARD PLATE): inactive; negative
- mutagenic call (Test System: AMES SALMONELLA TYPHIMURIUM, Strain/Indicator: TA1538, Metabolic Activation: NONE, Method: PREINCUBATION): inactive; negative
- mutagenic call (Test System: AMES SALMONELLA TYPHIMURIUM, Strain/Indicator: TA1538, Metabolic Activation: NONE, Method: STANDARD PLATE): inactive; negative
- mutagenic call (Test System: AMES SALMONELLA TYPHIMURIUM, Strain/Indicator: TA1538, Metabolic Activation: RAT, LIVER, S-9, PHENOBARBITAL AND BETA-NAPHTHOFLAVONE, Method: PREINCUBATION): inactive; negative
- mutagenic call (Test System: AMES SALMONELLA TYPHIMURIUM, Strain/Indicator: TA1538, Metabolic Activation: RAT, LIVER, S-9, PHENOBARBITAL AND BETA-NAPHTHOFLAVONE, Method: STANDARD PLATE): inactive; negative
- mutagenic call (Test System: CHINESE HAMSTER V-79, Strain/Indicator: V-79 (HPRT)/6-THIOGUANINE, Metabolic Activation: NONE, Method: SUSPENSION/PLATE): inactive; negative
- mutagenic call (Test System: CHINESE HAMSTER V-79, Strain/Indicator: V-79 (HPRT)/6-THIOGUANINE, Metabolic Activation: RAT, LIVER, S-9, AROCLOR 1254, Method: SUSPENSION/PLATE): inactive; negative
- mutagenic call (Test System: E. COLI, Strain/Indicator: WP2 UVRA, Metabolic Activation: NONE, Method: PREINCUBATION): inactive; negative
- mutagenic call (Test System: E. COLI, Strain/Indicator: WP2 UVRA, Metabolic Activation: NONE, Method: STANDARD PLATE): inactive; negative
- mutagenic call (Test System: E. COLI, Strain/Indicator: WP2 UVRA, Metabolic Activation: RAT, LIVER, S-9, PHENOBARBITAL AND BETA-NAPHTHOFLAVONE, Method: PREINCUBATION): inactive; negative
- mutagenic call (Test System: E. COLI, Strain/Indicator: WP2 UVRA, Metabolic Activation: RAT, LIVER, S-9, PHENOBARBITAL AND BETA-NAPHTHOFLAVONE, Method: STANDARD PLATE): inactive; negative
- mutagenic call (Test System: UDS RAT HEPATOCYTES, Strain/Indicator: THY INCORP, Metabolic Activation: NONE, Method: AUTORADIOGRAPHY): inactive; negative

SMILES: O=C/C=C/C=C/C(=O)O
- mutagenic call (Test System: CHINESE HAMSTER V-79, Strain/Indicator: V-79 (HGPRT)/8-AZAGUANINE, Metabolic Activation: NONE): active; positive

SMILES: OCc1ccc2nc3c(ccc4ccccc43)c(CO)c2c1
- mutagenic call (Test System: AMES SALMONELLA TYPHIMURIUM, Strain/Indicator: TA100, Metabolic Activation: RAT, LIVER, S-9, AROCLOR 1254, Method: STANDARD PLATE): active; positive
